In the experiment the target is T1, human DGKζ (Homo sapiens, UniProt Q13574).
T1 construct: made in house; host or cells: Sf9 insect cells, baculovirus
The experiment in a line: Human DGKζ kinase activity inhibition assay (ADP-Glo). The format is biochemical. Conditions: recombinant full-length human DGKζ, 55 μM ATP, 7 μM 1,2-dioleoyl-sn-glycerol, 20 min at 22° C.; read-out: IC50 in vitro human DGKζ kinase activity inhibition assay. Here is the method: Human DGKζ Kinase Activity Inhibition Assay
Human diacylglycerol kinase zeta (DGKζ) inhibitory activity of compounds of the present invention was quantified employing the human DGKζ kinase activity assay as described in the following paragraphs. In essence, the enzyme activity was measured by quantification of the adenosine-di-phosphate (ADP) generated as a co-product of the enzyme reaction via the “ADP-Glo™ Kinase Assay” kit from the company Promega. This detection system works as follows: In a first step the adenosine-tri-phosphate (ATP) not consumed in the kinase reaction is quantitatively converted to cyclic adenosine-mono-phosphate (cAMP) employing an adenylate cyclase (“ADP-Glo-reagent”), then the adenylate cyclase is stopped and the ADP generated in the kinase reaction is converted to ATP, which subsequently generates in a luciferase-based reaction a glow-luminescence signal (“Kinase Detection Reagent”).
C-terminally FLAG-tagged, recombinant full-length human DGKζ (inhouse expressed in baculovirus infected insect cells, purified using anti-Flag pulldown and size exclusion chromatography) was used as enzyme. As an alternative, commercially available enzyme by Carnabio can be used. As substrate for the kinase, 1,2-dioleoyl-sn-glycerol, reconstituted in octyl-β-D-glucopyranoside micelles, was used. […] Subsequently, 22.55 volumes of a 510 mM solution of octyl-β-D-glucopyranoside (Sigma-Aldrich, Cat. #08001-10G) in 50 mM MOPS buffer (pH 7.4) were added, and the mixture was sonicated in an ultrasonic bath for 20 s. Then 35 volumes of 50 mM MOPS buffer (pH 7.4) were added to yield a solution of 0.28 mM 1,2 dioleoyl-sn-glycerol and 200 mM octyl-β-D-glucopyranoside, which was aliquoted, flash-frozen in liquid nitrogen, and stored at −20° C. until use.
For the assay 50 nl of a 100-fold concentrated solution of the test compound in dimethyl sulfoxide (DMSO, Sigma) was pipetted into either a white 1536-well or a white low-volume 384-well microtiter plate (both Greiner Bio-One, Frickenhausen, Germany). […] The concentration of DGKζ was adjusted depending of the activity of the enzyme lot and was chosen appropriate to have the assay in the linear range, a typical concentration is about 0.1 nM. The reaction was stopped by the addition of 2.5 μL of “ADP-Glo-reagent” (1 to 1.5 diluted with water) and the resulting mixture was incubated at 22° C. for 1 h to convert the ATP not consumed in the kinase reaction completely to cAMP. Subsequently 2.5 μl of the “kinase detection reagent” (1.2 fold more concentrated than recommended by the producer) were added, the resulting mixture was incubated at 22° C. for 1 h and then the luminescence measured with a suitable measurement instrument (e.g. Viewlux™ from Perkin-Elmer). The amount of emitted light was taken as a measure for the amount of ADP generated and thereby for the activity of the DGKζ.
The data were normalised (enzyme reaction without inhibitor=0% inhibition, all other assay components but no enzyme=100% inhibition).
(ADP-Glo turns the ADP formed in a reaction into a luminescent signal.)

These results are taken from patent US12673927B2, “Substituted aminothiazoles as DGKzeta inhibitors for immune activation” (Deutsches Krebsforschungszentrum, priority 2020, dated 2026).

Molecules are shown by their SMILES.

Usually IC50 stands for the midpoint of a concentration-inhibition curve.

T1 sequence (Q13574 with tags, fused parts or gaps): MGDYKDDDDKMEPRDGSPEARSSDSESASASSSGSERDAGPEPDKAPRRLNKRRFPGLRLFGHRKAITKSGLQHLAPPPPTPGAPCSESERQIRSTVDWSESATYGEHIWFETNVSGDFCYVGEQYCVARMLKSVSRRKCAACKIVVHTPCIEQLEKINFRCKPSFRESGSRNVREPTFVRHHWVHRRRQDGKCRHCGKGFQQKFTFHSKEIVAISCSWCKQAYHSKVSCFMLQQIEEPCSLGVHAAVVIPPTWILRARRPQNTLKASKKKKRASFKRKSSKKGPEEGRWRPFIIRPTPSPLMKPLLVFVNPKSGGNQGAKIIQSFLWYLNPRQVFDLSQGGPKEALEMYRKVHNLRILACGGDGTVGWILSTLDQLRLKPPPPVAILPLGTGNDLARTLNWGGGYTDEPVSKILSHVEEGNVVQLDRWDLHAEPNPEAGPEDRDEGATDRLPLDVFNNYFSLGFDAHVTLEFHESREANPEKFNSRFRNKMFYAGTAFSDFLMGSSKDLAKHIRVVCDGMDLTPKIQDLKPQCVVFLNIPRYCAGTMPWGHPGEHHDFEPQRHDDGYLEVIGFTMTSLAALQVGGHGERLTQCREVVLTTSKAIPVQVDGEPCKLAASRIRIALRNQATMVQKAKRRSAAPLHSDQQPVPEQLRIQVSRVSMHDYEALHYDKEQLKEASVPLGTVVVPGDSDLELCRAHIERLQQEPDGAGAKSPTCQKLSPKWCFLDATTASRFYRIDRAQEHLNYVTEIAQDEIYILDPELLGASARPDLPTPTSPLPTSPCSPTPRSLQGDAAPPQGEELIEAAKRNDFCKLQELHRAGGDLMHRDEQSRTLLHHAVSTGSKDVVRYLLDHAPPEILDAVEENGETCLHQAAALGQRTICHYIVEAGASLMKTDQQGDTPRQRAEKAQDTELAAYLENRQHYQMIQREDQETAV

For `Cc1nc(N(c2ccc(F)cc2)C(C)C(N)=O)sc1C(=O)c1ccc(OC(F)F)cc1` (racemic) [Example 54], the half-inhibitory concentration (IC50) came to 20.7 nM. As for `NC(=O)CN(c1ccc(F)cc1)c1nc(N)c(C(=O)c2ccccc2)s1` (racemic) [Example 71], the figure is 2310 nM; as for `Cc1ccc(C(=O)c2sc(N(CC(N)=O)c3ccc(F)cc3)nc2N)cc1` (racemic) [Example 72], 985 nM; as for `CC(C(N)=O)N(c1ccc(F)cc1)c1nc(N)c(C(=O)c2ccc(C#N)c(F)c2)s1` (single isomer, unassigned) [Example 21.2, 2-(N-[4-amino-5-(4-cyano-3-fluoro-benzoyl)thiazol-2-yl]-4-fluoro-anilino)propanamide], 51 nM. As for `CC(C(N)=O)N(c1ccc(F)cc1)c1nc(N)c(C(=O)c2ccc(Cl)cc2)s1` (single isomer, unassigned) [Example 38.2, 2-(N-[4-amino-5-(4-chlorobenzoyl)thiazol-2-yl]-4-fluoro-anilino)propanamide], the figure is 7.37 nM; as for `CC(C(N)=O)N(c1ccc(F)c(F)c1)c1nc(N)c(C(=O)c2ccc(OC(F)F)cc2)s1` (single isomer, unassigned) [Example 49.1, 2-(N-[4-amino-5-[4-(difluoromethoxy)benzoyl]thiazol-2-yl]-3,4-difluoro-anilino)propanamide], 1030 nM.

Regarding `COc1ccc(C(=O)c2sc(N(c3ccc(F)c(F)c3)C(C)C(N)=O)nc2N)cc1` (single isomer, unassigned) [Example 51.1, 2-(N-[4-amino-5-(4-methoxybenzoyl)thiazol-2-yl]-3,4-difluoro-anilino)propanamide], the IC50 was 8.85 nM.

For `COc1ccc(C(=O)c2sc(N(c3ccc(F)c(F)c3)C(C)C(N)=O)nc2N)cc1` (single isomer, unassigned) [Example 51.2, 2-(N-[4-amino-5-(4-methoxybenzoyl)thiazol-2-yl]-3,4-difluoro-anilino)propanamide], the half-maximal inhibitory concentration (IC50) is 872 nM. With `CC(C(N)=O)N(c1ccc(Cl)c(F)c1)c1nc(N)c(C(=O)c2ccncc2)s1` (single isomer, unassigned) [Example 56.2, 2-(N-[4-amino-5-(pyridine-4-carbonyl)thiazol-2-yl]-4-chloro-3-fluoro-anilino)propanamide] the figure was 7640 nM; with `CC(C(N)=O)N(c1cccc(F)c1)c1nc(N)c(C(=O)c2ccccc2)s1` (single isomer, unassigned) [Example 74.2, 2-(N-(4-amino-5-benzoyl-thiazol-2-yl)-3-fluoro-anilino)propanamide], 81.4 nM. With `CC(C(N)=O)N(c1nc(N)c(C(=O)c2ccccc2)s1)c1ccccc1F` (single isomer, unassigned) [Example 75.2, 2-(N-(4-amino-5-benzoyl-thiazol-2-yl)-2-fluoro-anilino)propanamide] the figure was 214 nM; with `Cc1cccc(N(c2nc(N)c(C(=O)c3ccccc3)s2)C(C)C(N)=O)c1` (single isomer, unassigned) [Example 76.2, 2-(N-(4-amino-5-benzoyl-thiazol-2-yl)-3-methyl-anilino)propanamide], 11000 nM; with `CC(C(N)=O)N(c1ccc(F)cc1)c1nc(N)c(C(=O)c2ccc(OCC(=O)NCC34CC5CC(CC(C5)C3)C4)cc2)s1` (single isomer, unassigned) [Example 143, 2-(N-[5-[4-[2-(1-adamantylmethylamino)-2-oxo-ethoxy]benzoyl]-4-amino-thiazol-2-yl]-4-fluoro-anilino)propanamide], 12.7 nM. With `CC(C(N)=O)N(c1ccc(F)cc1)c1nc(N)c(C(=O)c2ccc(OCC(=O)NCCC34CC5CC(CC(C5)C3)C4)cc2)s1` (single isomer, unassigned) [Example 144] the figure was 8.79 nM; with `CC(C(N)=O)N(c1ccc(F)cc1)c1nc(N)c(C(=O)c2ccc(OCC(=O)Nc3ccc(Cl)cc3)cc2)s1` (single isomer, unassigned) [Example 145, 2-(N-[4-amino-5-[4-[2-(4-chloroanilino)-2-oxo-ethoxy]benzoyl]thiazol-2-yl]-4-fluoro-anilino)propanamide], 2.66 nM. As for `CC(C(N)=O)N(c1ccc(F)cc1)c1nc(N)c(C(=O)c2ccc(OCC(=O)Nc3ccc(C(N)=O)cc3)cc2)s1` (single isomer, unassigned) [Example 146, 4-([2-[4-[4-amino-2-(4-fluoro-N-[2-amino-1-methyl-2-oxo-ethyl]anilino)thiazole-5-carbonyl]phenoxy]acetyl]amino]benzamide], the IC50 is 21.6 nM.

For the molecule `CC(C(N)=O)N(c1ccc(F)cc1)c1nc(N)c(C(=O)c2ccc(OCC(=O)NCCN3CCCCC3)cc2)s1` (single isomer, unassigned) [Example 148, 2-(N-[4-amino-5-[4-[2-oxo-2-[2-(1-piperidyl)ethylamino]ethoxy]benzoyl]thiazol-2-yl]-4-fluoro-anilino)propanamide], the concentration for half-maximal inhibition (IC50) was 76.4 nM. With `CC(C(N)=O)N(c1ccc(F)cc1)c1nc(N)c(C(=O)c2ccc(OCC(N)=O)cc2)s1` (single isomer, unassigned) [Example 149, 2-(N-[4-amino-5-[4-(2-amino-2-oxo-ethoxy)benzoyl]thiazol-2-yl]-4-fluoro-anilino)propanamide] the figure was 405 nM; with `CNC(=O)COc1ccc(C(=O)c2sc(N(c3ccc(F)cc3)C(C)C(N)=O)nc2N)cc1` (single isomer, unassigned) [Example 150, 2-(N-[4-amino-5-[4-[2-(methylamino)-2-oxo-ethoxy]benzoyl]thiazol-2-yl]-4-fluoro-anilino)propanamide], 372 nM. With `CNC(=O)COc1ccc(C(=O)c2sc(N(c3ccc(F)cc3)C(C)C(N)=O)nc2N)cc1` (single isomer, unassigned) [Example 151, 2-(N-[4-amino-5-[4-[2-(methylamino)-2-oxo-ethoxy]benzoyl]thiazol-2-yl]-4-fluoro-anilino)propanamide] the figure was 387 nM; with `CC(C)NC(=O)COc1ccc(C(=O)c2sc(N(c3ccc(F)cc3)C(C)C(N)=O)nc2N)cc1` (single isomer, unassigned) [Example 152, 2-(N-[4-amino-5-[4-[2-(isopropylamino)-2-oxo-ethoxy]benzoyl]thiazol-2-yl]-4-fluoro-anilino)propanamide], 111 nM; with `CC(C)NC(=O)COc1ccc(C(=O)c2sc(N(c3ccc(F)cc3)C(C)C(N)=O)nc2N)cc1` (single isomer, unassigned) [Example 153, 2-(N-[4-amino-5-[4-[2-(isopropylamino)-2-oxo-ethoxy]benzoyl]thiazol-2-yl]-4-fluoro-anilino)propanamide], 107 nM. As for `CC(C(N)=O)N(c1ccc(F)c(Cl)c1)c1nc(N)c(C(=O)c2ccncc2)s1` (single isomer, unassigned) [Example 160.1, 2-(N-[4-amino-5-(pyridine-4-carbonyl)thiazol-2-yl]-3-chloro-4-fluoro-anilino)propanamide], the figure is 115 nM; as for `CC(C(N)=O)N(c1ccc(F)c(F)c1)c1nc(N)c(C(=O)c2ccc(OC(F)F)nc2)s1` (single isomer, unassigned) [Example 163.1, 2-(N-[4-amino-5-[6-(difluoromethoxy)pyridine-3-carbonyl]thiazol-2-yl]-3,4-difluoro-anilino)propanamide], 5 nM; as for `CC(C(N)=O)N(c1ccc(Cl)c(F)c1)c1nc(N)c(C(=O)c2ccc(OC(F)F)nc2)s1` (single isomer, unassigned) [Example 164.2, 2-(N-[4-amino-5-[6-(difluoromethoxy)pyridine-3-carbonyl]thiazol-2-yl]-4-chloro-3-fluoro-anilino)propanamide], 944 nM. With `CC(C(N)=O)N(c1ccc(Cl)c(F)c1)c1nc(N)c(C(=O)c2ccc(OCc3ccccc3)cc2)s1` (single isomer, unassigned) [Example 166.1, 2-(N-[4-amino-5-(4-benzyloxybenzoyl)thiazol-2-yl]-4-chloro-3-fluoro-anilino)propanamide], the IC50 was 2 nM.
